Source: patent publication KR20230116309A (priority 2022, dated 2023)
Structures can show the parent of a compound that is named as a salt. Where two headings read alike, the source gives them in different places.

Legend:
[1] = tested on: proteins involved in foot-and-mouth disease virus replication [구제역바이러스의 증식에 관여하는 단백질]; conditions: cited from earlier work
IL-12 = tested on: IL-12; parameters: species or system Balb/C mouse; conditions: mouse, in vivo
IL-6 = tested on: IL-6; parameters: species or system Balb/C mouse; conditions: mouse, in vivo
[2] = tested on: porcine interferon alpha protein [돼지 인터페론 알파 단백질]; type: cell-based
[3] = tested on: human immunodeficiency virus [인간면역결핍 바이러스(HIV)]; conditions: cited from earlier work
IFN-α [인터페론 알파(IFN-α)] = tested on: IFN-α [인터페론 알파(IFN-α)]; parameters: species or system Balb/C mouse; conditions: mouse, in vivo
[4] = tested on: foot-and-mouth disease virus O/SKR/Boeun/2017 [구제역바이러스(O/SKR/Boeun/2017)]; type: cell-based
[5] = tested on: human hepatitis C virus [인간 간염 바이러스 C형(HCV)]; conditions: cited from earlier work
[6] = tested on: foot-and-mouth disease virus O/SKR/Boeun/2017 [O/SKR/Boeun/2017 바이러스]; type: cell-based
IP-10 [IP-10(CXCL10)] = tested on: IP-10 [IP-10(CXCL10)]; parameters: species or system Balb/C mouse; conditions: mouse, in vivo
[7] = tested on: chronic hepatitis B virus [B형 만성 간염 바이러스]; conditions: oral administration, human and laboratory animals; cited from earlier work
[8] = tested on: enterovirus 71 [엔테로바이러스 71(EV71)]; conditions: cited from earlier work
LFBK cells [LFBK 세포] = assay: Cytotoxicity by MTS assay (Test Example 1); type: cell-based, porcine; conditions: no virus, values in Table 1 (missing)
[9] = tested on: foot-and-mouth disease virus O/VIT/2013 [구제역바이러스 O/VIT/2013]; type: in vivo, C57BL/6 mouse; conditions: for survival rate: 16 h before challenge with 250 LD50, day 7
IFN-γ [인터페론 감마(IFN-γ)] = tested on: IFN-γ [인터페론 감마(IFN-γ)]; parameters: species or system Balb/C mouse; conditions: mouse, in vivo
[10] = biological target: T1, TLR7 (toll-like receptor 7) (Homo sapiens, UniProt Q9NYK1); conditions: oral administration; cited from earlier work
T1 sequence (Q9NYK1 27-1049): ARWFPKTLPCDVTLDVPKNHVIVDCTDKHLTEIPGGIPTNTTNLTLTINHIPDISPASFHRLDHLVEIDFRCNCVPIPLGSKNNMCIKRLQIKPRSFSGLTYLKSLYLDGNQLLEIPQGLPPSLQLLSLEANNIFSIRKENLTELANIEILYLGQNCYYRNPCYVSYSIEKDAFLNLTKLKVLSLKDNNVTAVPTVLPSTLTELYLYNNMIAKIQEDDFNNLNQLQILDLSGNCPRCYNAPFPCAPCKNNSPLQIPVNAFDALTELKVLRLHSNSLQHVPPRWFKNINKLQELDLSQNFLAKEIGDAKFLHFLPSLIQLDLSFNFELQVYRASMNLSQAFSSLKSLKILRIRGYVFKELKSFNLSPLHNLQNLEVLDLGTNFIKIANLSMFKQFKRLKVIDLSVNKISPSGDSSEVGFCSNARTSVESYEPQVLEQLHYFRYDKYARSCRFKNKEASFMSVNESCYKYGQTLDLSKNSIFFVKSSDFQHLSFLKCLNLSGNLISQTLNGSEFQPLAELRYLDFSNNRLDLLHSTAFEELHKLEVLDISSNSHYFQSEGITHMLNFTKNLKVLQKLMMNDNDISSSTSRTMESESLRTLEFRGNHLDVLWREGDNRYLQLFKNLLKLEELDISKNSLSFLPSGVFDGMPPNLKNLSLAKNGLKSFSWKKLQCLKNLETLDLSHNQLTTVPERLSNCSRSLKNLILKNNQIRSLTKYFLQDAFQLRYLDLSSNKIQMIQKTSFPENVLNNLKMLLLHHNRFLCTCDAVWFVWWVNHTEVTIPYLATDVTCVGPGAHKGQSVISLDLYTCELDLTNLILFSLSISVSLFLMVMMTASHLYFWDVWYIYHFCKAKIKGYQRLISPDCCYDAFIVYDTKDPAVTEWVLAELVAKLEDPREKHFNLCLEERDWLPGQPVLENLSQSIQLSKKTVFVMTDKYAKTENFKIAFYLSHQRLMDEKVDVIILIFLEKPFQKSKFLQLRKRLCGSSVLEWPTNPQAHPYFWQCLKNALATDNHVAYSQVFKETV

[11] = tested on: interferon-stimulated gene [인터페론-자극 유전자(interferon-stimulated gene; ISG)]; conditions: oral administration, human and laboratory animals; cited from earlier work

O=c1cnn([C@@H]2O[C@H](CO)[C@@H](O)[C@H]2O)c(=O)[nH]1 [6-아자우리딘(azauridine)]
inhibition of proteins involved in FMDV replication [1]: 구제역바이러스의 증식에 관여하는 단백질을 억제

CCCCOc1nc(N)c2c(n1)N(Cc1cccc(CN3CCCC3)c1)CC(=O)N2 [GS-9620, 베사톨리모드(Vesatolimod; GS-9620)]
IL-12 induction (IL-12): 증가가 확인된 | IL-6 induction (IL-6): 신속하게 또한 지속적으로 유도 | IFN-α protein induction [2]: IFN-α 단백질을 성공적으로 유도 | antiviral effect [3]: 항바이러스 효과 | IFN-α induction (IFN-α [인터페론 알파(IFN-α)]): 유도되어 나타났다 | FMDV replication inhibitory effect, dose dependence ([4]; 2500~156.2 μM, 24 h pretreatment, 100 TCID50, 48 h): 용량에 비례하여 구제역바이러스 증식억제 효과를 발휘 | FMDV replication inhibitory effect compared with ribavirin ([4]; same concentration, P<0.05, 100 TCID50, 48 h): 같은 농도에서 더 우수한 바이러스 증식효과 | antiviral effect [5]: 항바이러스 효과 | selectivity index (CC50/EC50) ([6]; LFBK cells, 24 h pretreatment, 100TCID50 virus, 24 h after inoculation): ~650.5 | virus inhibitory effect ([6]; LFBK cells, MTS assay, values in Table 1 (missing)): 우수한 바이러스 억제효과 | selectivity index relative to ribavirin (fold higher) ([6]; compared with ribavirin): ~5 fold | IP-10 induction (IP-10 [IP-10(CXCL10)]): 신속하게 또한 지속적으로 유도 | inhibition of hepatitis B virus [7]: B형 만성 간염 바이러스를 억제 | antiviral effect [8]: 항바이러스 효과 | cytotoxicity (LFBK cells [LFBK 세포]): 낮은 세포독성 | survival rate ([9]; 10 mg/kg i.p.): 100% | survival rate (duration of protection) ([9]; 10 mg/kg i.p., up to day 5 after administration (challenge 1, 3, 5 days after dosing, 250 LD50)): 100% | survival rate ([9]; printed dose 25 mg/kg ('halved'), i.p.): 80% | IFN-γ induction (IFN-γ [인터페론 감마(IFN-γ)]): 유도되어 나타났다 | TLR7 agonist activity [10]: 효능제(agonist)로 작용 | induction of ISG expression [11]: 발현을 유도

N=C(N)N [구아니딘(Guanidine)-HCl]
inhibition of proteins involved in FMDV replication [1]: 구제역바이러스의 증식에 관여하는 단백질을 억제

NC(=O)c1ncn([C@@H]2O[C@H](CO)[C@@H](O)[C@H]2O)n1 [리바비린, 리바비린(ribavirin)]
inhibition of proteins involved in FMDV replication [1]: 구제역바이러스의 증식에 관여하는 단백질을 억제
